Values of other authors, collected in patent publication US20130303466A1, “Chemosensory Receptor Ligand-Based Therapies” (ELCELYX THERAPEUTICS, INC., priority 2010, published 2013).

Molecular target: T1, sweet receptor (Homo sapiens, UniProt Q7RTX0+Q8TE23)
T1 sequence (Q8TE23 20-839): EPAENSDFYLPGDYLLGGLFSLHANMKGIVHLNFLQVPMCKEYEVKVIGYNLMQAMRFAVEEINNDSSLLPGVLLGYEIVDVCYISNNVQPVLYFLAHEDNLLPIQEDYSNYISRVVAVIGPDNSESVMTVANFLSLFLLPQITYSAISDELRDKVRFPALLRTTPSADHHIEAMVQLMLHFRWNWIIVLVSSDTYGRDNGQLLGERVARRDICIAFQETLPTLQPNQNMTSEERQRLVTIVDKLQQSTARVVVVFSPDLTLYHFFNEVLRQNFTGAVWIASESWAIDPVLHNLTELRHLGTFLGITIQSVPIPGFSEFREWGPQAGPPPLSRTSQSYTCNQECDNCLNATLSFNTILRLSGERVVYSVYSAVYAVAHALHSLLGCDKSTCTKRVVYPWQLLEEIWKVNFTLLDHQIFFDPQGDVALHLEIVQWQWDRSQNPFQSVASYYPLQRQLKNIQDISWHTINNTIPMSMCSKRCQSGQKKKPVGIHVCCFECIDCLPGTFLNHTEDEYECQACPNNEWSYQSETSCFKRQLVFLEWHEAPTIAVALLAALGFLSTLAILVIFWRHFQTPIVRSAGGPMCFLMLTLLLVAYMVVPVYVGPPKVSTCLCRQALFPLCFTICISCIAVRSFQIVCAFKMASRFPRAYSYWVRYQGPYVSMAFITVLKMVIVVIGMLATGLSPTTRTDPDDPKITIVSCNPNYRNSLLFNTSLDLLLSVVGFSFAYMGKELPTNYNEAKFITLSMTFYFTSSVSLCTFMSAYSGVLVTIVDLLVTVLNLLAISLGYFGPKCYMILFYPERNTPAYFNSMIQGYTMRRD
T1 sequence (Q7RTX0 21-852): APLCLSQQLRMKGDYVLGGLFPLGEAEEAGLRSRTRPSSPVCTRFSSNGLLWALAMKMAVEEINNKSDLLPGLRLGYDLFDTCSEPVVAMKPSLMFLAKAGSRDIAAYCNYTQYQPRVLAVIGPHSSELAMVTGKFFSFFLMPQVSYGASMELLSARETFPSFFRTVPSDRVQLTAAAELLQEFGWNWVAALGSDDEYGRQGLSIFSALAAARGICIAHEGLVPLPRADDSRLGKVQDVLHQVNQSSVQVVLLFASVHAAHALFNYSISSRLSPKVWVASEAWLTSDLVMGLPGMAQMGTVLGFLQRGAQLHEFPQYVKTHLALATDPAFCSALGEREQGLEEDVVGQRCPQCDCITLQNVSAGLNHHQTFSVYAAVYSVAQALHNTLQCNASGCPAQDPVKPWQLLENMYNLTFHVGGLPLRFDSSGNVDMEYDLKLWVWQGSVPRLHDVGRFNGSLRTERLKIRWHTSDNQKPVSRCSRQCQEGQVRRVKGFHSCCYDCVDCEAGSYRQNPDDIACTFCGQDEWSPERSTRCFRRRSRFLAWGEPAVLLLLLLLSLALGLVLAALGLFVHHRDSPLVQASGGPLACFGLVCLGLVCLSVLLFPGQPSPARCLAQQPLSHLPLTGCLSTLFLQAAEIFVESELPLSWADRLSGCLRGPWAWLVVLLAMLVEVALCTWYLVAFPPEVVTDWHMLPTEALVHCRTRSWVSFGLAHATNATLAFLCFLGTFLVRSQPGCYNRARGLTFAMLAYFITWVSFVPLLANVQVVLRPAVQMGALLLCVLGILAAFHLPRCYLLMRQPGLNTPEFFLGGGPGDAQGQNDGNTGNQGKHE
Details: relative sweetness on a weight comparison basis to sucrose (= 1.0); ranges: relative sweetness varied with the concentration of sucrose; adapted from Kim et al., 2002

Compound | Sweetness/potency
C=C(C)C1CC=C(/C=N/O)CC1 (centres unmarked) [Perillartine (10), Perillartine] | 370
CC[C@@H](C)C(=O)O[C@@H](C)[C@]1(O)CC[C@]2(O)[C@@H]3CC[C@H]4C[C@@H](O[C@@H]5C[C@H](O)[C@H](O[C@H]6C[C@H](OC)[C@H](O[C@H]7C[C@@H](OC)[C@H](O[C@H]8C[C@@H](OC)[C@H](O[C@@H]9O[C@H](C)[C@@H](O[C@@H]%10O[C@H](CO)[C@@H](O)[C@H](O)[C@H]%10O)[C@H](OC)[C@H]9O)[C@@H](C)O8)[C@@H](C)O7)[C@@H](C)O6)[C@@H](C)O5)CC[C@]4(C)[C@H]3C[C@@H](OC(C)=O)[C@]12C [Telosmoside A15 (74), Telosmoside A15] | 1000
C=C(C)C1CCC2(C)C(CC(OC3OCC(O)C(O)C3O)C3C(C(C)(O)C/C=C/C(C)(C)O)CCC32C)C1(C)CCC(=O)O (centres unmarked) [Pterocaryoside B (63), Pterocaryoside B] | 100
CC(=O)O[C@H]1C(=O)c2c(O)cc(O)cc2O[C@@H]1c1ccc(O)c(O)c1 [(2R,3R)-Dihydroquercetin 3-O-acetate] | 80
Dulcoside A [Dulcoside A (15)] | 30
Curculin | 550
Carnosifloside V [Carnosifloside V (35)] | 51
Periandrin II [Periandrin II (58)] | 95
CC1(C)[C@@H](O[C@H]2O[C@H](C(=O)O)[C@@H](O)[C@H](O)[C@H]2O[C@@H]2OC[C@H](O)[C@H](O)[C@H]2O)CC[C@]2(C)[C@H]3C(=O)C=C4[C@@H]5C[C@@](C)(C(=O)O)CC[C@]5(C)CC[C@@]4(C)[C@]3(C)CC[C@@H]12 [Araboglycyrrhizin (56), Araboglycyrrhizin] | 150
COc1c(O)cc2c(c1O)C(=O)[C@H](O)[C@@H](c1ccc(O)c(O)c1)O2 [(2R,3R)-2,3-Dihydro-5,7,3′,4′-tetrahydroxy-6-methoxyflavonol] | 15
COc1c(O)cc2c(c1O)C(=O)[C@H](OC(C)=O)[C@@H](c1ccc(O)c(O)c1)O2 [(2R,3R)-2,3-Dihydro-5,7,3′,4′-tetrahydroxy-6-methoxy-3-O-acetylflavonol] | 25
Rebaudioside B [Rebaudioside B (16)] | 150
O=C/C=C/c1ccccc1 [Trans-Cinnamaldehyde (79), Trans-Cinnamaldehyde] | 50
Oc1ccc([C@H]2Oc3c(c(O)cc4c3[C@H]3c5c(O)cc(O)cc5O[C@@](c5ccc(O)cc5)(O4)[C@@H]3O)[C@H](c3c(O)cc(O)c4c3O[C@H](c3ccc(O)cc3)[C@@H](O)C4)[C@H]2O)cc1 [Selligueain A (96), Selligueain A] | 35
CC1=CC[C@@H]([C@@H](C)[C@H]2CC[C@@]3(C)[C@@H]4CC[C@H]5[C@](C)(C(=O)O)[C@@H](O[C@@H]6O[C@H](CO)[C@@H](O)[C@H](O)[C@H]6O)CC[C@@]56C[C@@]46CC[C@]23C)OC1=O [Abrusoside A (42), Abrusoside A] | 30
C/C(=C\CC/C(C)=C/CO[C@@H]1O[C@H](CO)[C@@H](O)[C@H](O[C@@H]2O[C@@H](C)[C@H](O)[C@@H](O)[C@H]2O)[C@H]1O[C@@H]1O[C@@H](C)[C@H](O)[C@@H](O)[C@H]1O)CC/C=C(\C)CO[C@@H]1O[C@H](CO)[C@@H](O)[C@H](O[C@@H]2O[C@@H](C)[C@H](O)[C@@H](O)[C@H]2O)[C@H]1O[C@@H]1O[C@@H](C)[C@H](O)[C@@H](O)[C@H]1O [Mukurozioside IIb (13), Mukurozioside IIb] | ca. 1
COc1ccc([C@H]2Cc3cccc(O)c3C(=O)O2)cc1O [Phyllodulcin (3), Phyllodulcin] | 400
Pterocaryoside A [Pterocaryoside A (62)] | 50

Compound | Sweetness/potency
CC1(C(=O)O)CCC2(C)CCC3(C)C(=CC(=O)C4C5(C)CCC(OC6OC(C(=O)O)C(O)C(O)C6OC6OCC(O)(CO)C6O)C(C)(C)C5CCC43C)C2C1 (centres unmarked) [Apioglycyrrhizin (55), Apioglycyrrhizin] | 300
CC1(C(=O)O)C=C2C3CCC4C5(C=O)CCC(OC6OC(C(=O)O)C(O)C(O)C6OC6OCC(O)C(O)C6O)C(C)(C)C5CCC4(C)C3(C)CCC2(C)CC1 (centres unmarked) [Periandrin V (61), Periandrin V] | 220
C[C@@H]1O[C@@H](O[C@H]2[C@H](Oc3cc(O)c(C(=O)CCc4ccc(O)cc4)c(O)c3)O[C@H](CO)[C@@H](O)[C@@H]2O)[C@H](O)[C@H](O)[C@H]1O [Naringin dihydrochalcone (81), Naringin dihydrochalcone] | 300
COc1ccc(CCC(=O)c2c(O)cc(O[C@@H]3O[C@H](CO)[C@@H](O)[C@H](O)[C@H]3O[C@@H]3O[C@@H](C)[C@H](O)[C@@H](O)[C@H]3O)cc2O)cc1O [Neohesperidin dihydrochalcone (82), Neohesperidin dihydrochalcone] | 1,000
CC1(C)C[C@H]2C3=CC[C@@H]4[C@@]5(C)CC[C@H](O[C@@H]6O[C@H](CO[C@@H]7OC[C@H](O)[C@H](O)[C@H]7O[C@@H]7OC[C@@H](O)[C@H](O)[C@H]7O)[C@@H](O)[C@H](O)[C@H]6O)C(C)(C)[C@@H]5CC[C@@]4(C)[C@]3(C)C[C@@H](O)[C@@]23C[C@@H]1OC3=O [Albiziasaponin A (50), Albiziasaponin A] | 5
Rebaudioside C [Rebaudioside C (17)] | 30
Cyclocarioside A [Cyclocarioside A (47)] | 200
CC1=CC[C@@H]([C@@H](C)[C@H]2CC[C@@]3(C)[C@@H]4CC[C@H]5[C@](C)(C(=O)O)[C@@H](O[C@@H]6O[C@H](CO)[C@@H](O)[C@H](O)[C@H]6O[C@@H]6O[C@H](C(=O)O)[C@@H](O)[C@H](O)[C@H]6O)CC[C@@]56C[C@@]46CC[C@]23C)OC1=O [Abrusoside D (45), Abrusoside D] | 75
Baiyunoside [Baiyunoside (30)] | 500
COC(=O)[C@H]1O[C@@H](O[C@H]2[C@H](O[C@H]3CC[C@]45C[C@]46CC[C@]4(C)[C@@H]([C@H](C)[C@@H]7CC=C(C)C(=O)O7)CC[C@@]4(C)[C@@H]6CC[C@H]5[C@]3(C)C(=O)O)O[C@H](CO)[C@@H](O)[C@@H]2O)[C@H](O)[C@@H](O)[C@@H]1O [Abrusoside B (43), Abrusoside B] | 100
Albiziasaponin B [Albiziasaponin B (51)] | 600
Periandrin IV [Periandrin IV (60)] | 85
C=C1C[C@@]23CC[C@H]4[C@@](C)(CCC[C@@]4(C)C(=O)O)[C@@H]2CC[C@]1(O[C@@H]1O[C@H](CO)[C@@H](O)[C@H](O)[C@H]1O[C@@H]1O[C@H](CO)[C@@H](O)[C@H](O)[C@H]1O)C3 [Steviolbioside (22), Steviolbioside] | 90
COc1ccc(C2Oc3cc(O)cc(O)c3C(=O)C2OC(C)=O)cc1O (centres unmarked) [Dihydroquercetin 3-O-acetate 4′-methyl ether] | 400
Thaumatin | 1,600
C/C(=C\CO)CCC1=C(C=O)CC(OC2OCC(O)C(O)C2O)C2C(C)(CO)CCCC12C (centres unmarked) [Gaudichaudioside A (32), Gaudichaudioside A] | 55
CC(C)=CCC[C@](C)(O)[C@@H]1CCC(C)=CC1=O [(+)-Hernandulcin (11), (+)-Hernandulcin] | 1,500
